From patent US6559157B2, “Dihydronaphthalene compounds” (Daiichi Pharmaceutical Co., Ltd., priority 1997, dated 2003)

Columns and labels:
[1] = target: T1, Aromatase (Homo sapiens, UniProt P11511); assay: Aromatase inhibiting activity test, human placenta microsomes; format: biochemical; conditions: testosterone 2.5 μM, NADPH 250 μM; for inhibition at 25 µM: inhibitor 25 μM
T1 construct: Aromatase was prepared from the microsome fraction of human placenta tissue; from tissue; host or cells: human placenta (microsome fraction)
T1 sequence (P11511 1-503): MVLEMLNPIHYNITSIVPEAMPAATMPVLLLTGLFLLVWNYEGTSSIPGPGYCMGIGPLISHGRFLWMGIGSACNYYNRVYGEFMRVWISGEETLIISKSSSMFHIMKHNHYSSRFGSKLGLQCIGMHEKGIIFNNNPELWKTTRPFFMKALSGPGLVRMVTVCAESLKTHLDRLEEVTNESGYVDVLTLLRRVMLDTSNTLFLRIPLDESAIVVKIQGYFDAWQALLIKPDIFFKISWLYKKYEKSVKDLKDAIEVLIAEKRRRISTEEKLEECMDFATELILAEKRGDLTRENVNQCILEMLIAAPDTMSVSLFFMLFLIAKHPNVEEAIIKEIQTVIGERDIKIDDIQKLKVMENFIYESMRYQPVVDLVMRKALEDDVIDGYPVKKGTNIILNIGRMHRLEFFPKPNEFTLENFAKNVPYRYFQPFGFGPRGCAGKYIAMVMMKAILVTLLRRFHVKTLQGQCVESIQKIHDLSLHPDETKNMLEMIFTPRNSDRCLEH
Procedure: Measurement was done according to the method of Rolf W. Hartmann and Christine Batzl (J. Med. Chem., 29, 8, 1368, 1986).
Aromatase was prepared from the microsome fraction of human placenta tissue according to the method of Thompson and Siiteri (J. Biol. Chem., 249, 5346, 1974). Microsomes obtained were suspended in a phosphate buffer solution (0.05 M, pH 7.4) and stored at −30° C.
Enzyme activity was evaluated by measuring the amount of ^3H2O produced by [1β, 2β-^3H] testosterone during the reaction according to the methods of Foster A. B. et al. (Foster A. B. et al., J. Med. Chem., 26, 50, 1983) and Graves P. E. and Salhanick H. A. (Endocrinology, 105, 52, 1979) as follows. To a test tube containing 0.225 μCi of [1β, 2β-^3H]testosterone were added 5 μM unlabeled testosterone, 2 mM NADPH, 20 mM glucose-6-phosphate, 1EU of glucose-6-phosphate dehydrogenase, and a test compound (0-250 μM) dissolved in phosphate buffer (0.05 M, pH 7.4). The test compound was dissolved in ethanol and diluted with the phosphate buffer. The final ethanol concentration in a reaction solution of the control and the test compound was 2%. This test tube was preincubated in a water bath at 30° C. for 5 minutes. Next, 0.5 mg of the microsome enzyme was added to start the reaction. The total volume of the reaction solution was 0.5 ml. Water phase portions (100 μl) were taken 0, 7, 14, and 21 minutes after the start of the reaction and added to 200 μl of cold 1 mM HgCl2. To this were added 200 μl of a 2% dextran-treated activatd charcoal (DCC) suspension. The admixture was shaken for 20 minutes and then centrifuged at 1500× g for 5 minutes to isolate the steroid adsorbed on DCC. The amount of the produced ^3H2O in the fractionated supernatant was counted by a liquid scintillation counter. Control samples with no test compound were tested in the same manner. The inhibiting activity (%) was calculated from the measurement using calculation formula 1.
Enzyme source: Human placenta microsomes
Inhibitor concentration: 25 μM (inhibiting activity (%) was calculated)
Substrate concentration: 2.5 μM (testosterone)
NADPH concentration: 250 μM

[2] = test system: Thromboxane A2 synthesis; assay: Thromboxane A2 synthesis inhibiting activity test in citric acid-treated human whole blood; format: cell-based; conditions: inhibitor 50 μM, collagen-stimulated
Procedure: Measurement was done as follows according to the method of Rolf W. Hartmann et al. (Arch. Pharm. Pharm. Med. Chem., 329, 251, 1996). To 0.5 ml of citric acid-treated human whole blood were added 10 μl of an ethanol/K-Na-phosphate buffer solution (pH 7.4) containing a test compound, and the admixture was preincubated at 37° C. for 10 minutes. Dazoxybene hydrochloride (100 μM) was added to the blanks. Next, 50 μl of a collagen solution (final collagen concentration: 53.6 μg/ml) were added and incubation was continued at 37° C. for 10 minutes. The reaction was stopped by adding 0.4 ml of a 20% trichloroacetic acid solution in 0.6 M hydrochloric acid, and the admixture was centrifuged at 4400× g for 10 minutes. The resulting supernatant (0.5 ml) was fractionated and added to 0.5 ml of a 0.53% thiobarbituric acid solution (solvent: K-Na-phosphate buffer (pH 7.4)), and the admixture was heated for 70 minutes and then allowed to stand at room temperature for 30 minutes. This sample was measured by a fluorophotometer (excitation wave length: 533 nm, measurement wave length: 550 nm). Control samples without test compounds were tested in the same manner. The inhibiting activity (%) was calculated from the measurements using formula 1.
Enzyme source: Citric acid-treated human whole blood
Inhibitor concentration: 50 μM (inhibiting activity (%) was calculated)
Substrate concentration: 25 μM (progesterone)

Row | SMILES | melting point | IC50 [1] | also measured
1 | COc1cccc2c1CCC(=Cc1c[nH]cn1)C2=O [Example 50] | 194 to 195 °C |  | 
2 | CCC1=C(Cc2ccncc2)CCc2ccc(OC)cc21 [Example 39] |  | 1300 nM | 
3 | CC1=C(Cc2cccnc2)CCc2cc(O)ccc21 [Example 24] |  |  | inhibition at 25 µM [1]: 37%
4 | CC1=C(Cc2cccnc2)CCc2ccc(O)cc21 [Example 25] |  | 6400 nM | 
5 | COc1cccc2c1CCC(Cc1cccnc1)=C2C [Example 16] |  |  | inhibition at 25 µM [1]: 50%
6 | COc1ccc2c(c1)CCC(Cc1ccncc1)=C2 [Example 42] |  | 790 nM | 
7 | CC1=C(Cc2cccnc2)CCc2ccccc21 [Example 15] |  |  | inhibition at 25 µM [1]: 56%
8 | CCCC1=C(Cc2ccncc2)CCc2cc(OC)ccc21 [Example 44] |  | 860 nM | 
9 | CC1=C(Cc2cccnc2)CCc2c(O)cccc21 [Example 23] |  |  | inhibition at 25 µM [1]: 60%
10 | COc1cccc2c1CCC(Cc1c[nH]cn1)=C2C [Example 52] | 132.5 to 135 °C |  | 
11 | COc1ccc2c(c1)CCC(Cc1cccnc1)=C2C [Example 17] |  |  | inhibition at 25 µM [1]: 52%
12 | CCC1=C(Cc2ccncc2)CCc2cc(OC)ccc21 [Example 38] |  | 790 nM | 
13 | COc1ccc2c(c1)CCC(Cc1c[nH]cn1)=C2 [Example 46] |  | 1800 nM | 
14 | CC1=C(Cc2ccncc2)CCc2cc(O)ccc21 [Example 27] |  | 1300 nM | 
15 | COc1ccc2c(c1)C(C)=C(Cc1cccnc1)CC2 [Example 18] |  |  | inhibition at 25 µM [1]: 61%
16 | COc1cccc2c1CCC(Cc1c[nH]cn1)C2=O (centres unmarked) [Example 51] | 145.5 to 148 °C |  | 
17 | CC1=C(Cc2ccncc2)CCc2ccc(O)cc21 [Example 28] |  | 1200 nM | 
18 | Oc1ccc2c(c1)CCC(Cc1ccncc1)=C2 [Example 45] |  | 3500 nM | 
19 | COc1ccc2c(c1)CCC(Cc1ccncc1)=C2C [Example 21] |  | 650 nM | inhibition at 50 µM [2]: 43%
20 | CC1=C(Cc2ccncc2)CCc2c(O)cccc21 [Example 26] |  | 700 nM | 
21 | CCC1=C(Cc2ccncc2)CCc2c(OC)cccc21 [Example 37] |  | 950 nM | 
22 | COc1cccc2c1CCC(Cc1ccncc1)=C2C [Example 20] |  | 380 nM | inhibition at 50 µM [2]: 60%
23 | CC1=C(Cc2ccncc2)CCc2ccccc21 [Example 19] |  | 230 nM | inhibition at 50 µM [2]: 25%
24 | CCOc1ccc2c(c1)C(C)=C(Cc1c[nH]cn1)CC2 [Example 40] |  | 1200 nM | 
25 | COc1ccc2c(c1)C=C(Cc1ccncc1)CC2 [Example 43] |  | 1700 nM | 
26 | COc1cccc2c1CCC(Cc1ccncc1)=C2 [Example 41] |  | 950 nM | 
27 | COc1ccc2c(c1)C(C)=C(Cc1ccncc1)CC2 [Example 22] |  | 630 nM | 
28 | CCC1=C(Cc2c[nH]cn2)CCc2cc(OC)ccc21 [Example 53] | 138 to 141.5 °C |  | 

Second part, led by results:

Row | melting point | IC50 [1] | SMILES | also measured
29 | 174.5 to 175.5 °C |  | CCCC1=C(Cc2c[nH]cn2)CCc2c(OC)cccc21 [Example 57] | 
30 | 200 to 202 °C |  | COc1cccc2c1CCC(Cc1c[nH]cn1)=C2c1ccccc1 [Example 60] | 
31 | 139.5 to 141 °C |  | CCOc1ccc2c(c1)C(=O)C(=Cc1c[nH]cn1)CC2 [Example 68] | 
32 | 111.5 to 113.5 °C |  | CCC1=C(Cc2c[nH]cn2)CCc2ccc(OC)cc21 [Example 54] | 
33 | 170.5 to 171.5 °C |  | CCOc1ccc2c(c1)C(C)=C(Cc1c[nH]cn1)CC2.Cl [Example 72] | 
34 | 122.5 to 123 °C |  | COc1ccc2c(c1)CCC(Cc1c[nH]cn1)=C2Cc1ccccc1 [Example 61] | 
35 | 96 to 97 °C |  | CC1=C(Cc2c[nH]cn2)CCc2cc(OCC(C)C)ccc21 [Example 78] | 
36 | 79 to 81.5 °C |  | CC(C)COc1ccc2c(c1)CCC(=Cc1c[nH]cn1)C2=O [Example 76] | 
37 | 198.5 to 199.5 °C |  | COc1ccc2c(c1)C(c1ccccc1)=C(Cc1c[nH]cn1)CC2 [Example 59] | 
38 | 201.5 to 202.5 °C |  | COc1ccc2c(c1)CCC(Cc1c[nH]cn1)=C2c1ccccc1 [Example 58] | 
39 | 176.5 to 178.5 °C |  | CCOc1ccc2c(c1)C(=O)C(Cc1c[nH]cn1)CC2 (centres unmarked) [Example 69] | 
40 | 155.5 to 156.5 °C |  | COc1ccc2c(c1)C=C(Cc1c[nH]cn1)CC2 [Example 63] | 
41 | 133.5 to 134.5 °C |  | CCOc1ccc2c(c1)CCC(=Cc1c[nH]cn1)C2=O [Example 66] | 
42 | 192.5 to 194.5 °C |  | COc1cccc2c1CCC(Cc1c[nH]cn1)=C2.Cl [Example 62] | 
43 | 132 to 134 °C |  | CCOc1cccc2c1CCC(Cc1c[nH]cn1)C2=O (centres unmarked) [Example 65] | 
44 | 122 to 124 °C |  | CCOc1cccc2c1CCC(=Cc1c[nH]cn1)C2=O [Example 64] | 
45 | 126 to 127 °C |  | CCOc1ccc2c(c1)CCC(Cc1c[nH]cn1)=C2C [Example 71] | 
46 | 164 to 166 °C |  | CCC1=C(Cc2c[nH]cn2)CCc2c(OC)cccc21.Cl [Example 55] | 
47 | 143.5 to 144.5 °C |  | CCOc1ccc2c(c1)CCC(Cc1c[nH]cn1)C2=O (centres unmarked) [Example 67] | 
48 | 133.5 to 136 °C |  | CCOc1cccc2c1CCC(Cc1c[nH]cn1)=C2C [Example 70] | 
49 | 123.5 to 124.5 °C |  | CCCC1=C(Cc2c[nH]cn2)CCc2cc(OC)ccc21 [Example 56] | 
50 | 114.5 to 115 °C |  | CC(C)COc1ccc2c(c1)CCC(Cc1c[nH]cn1)C2=O (centres unmarked) [Example 77] | 
51 | 91.5 to 92 °C |  | CCCOc1ccc2c(c1)CCC(Cc1c[nH]cn1)=C2C [Example 75] | 
52 | 156.5 to 158 °C |  | CCCOc1ccc2c(c1)CCC(=Cc1c[nH]cn1)C2=O [Example 73] | 
53 | 134.5 to 136 °C |  | CCCOc1ccc2c(c1)CCC(Cc1c[nH]cn1)C2=O (centres unmarked) [Example 74] | 
